Our source for the Ki, EC50 and CC50 values is patent US20070249637A1, “Inhibitors Of Hepatitis C Virus Protease, And Compositions And Treatments Using The Same” (priority 2004, published 2007).

Several values for one entry are separate records, joined by “and”; a condition that tells them apart may be missing. Identical values can stand only once.

For data set [1], the target named is T1, full-length NS3-NS4A enzyme (Hepatitis C virus genotype 1a, UniProt P27958).
T1 construct: 3 nM full-length NS3-NS4A enzyme
T1 sequence (P27958 1027-1657): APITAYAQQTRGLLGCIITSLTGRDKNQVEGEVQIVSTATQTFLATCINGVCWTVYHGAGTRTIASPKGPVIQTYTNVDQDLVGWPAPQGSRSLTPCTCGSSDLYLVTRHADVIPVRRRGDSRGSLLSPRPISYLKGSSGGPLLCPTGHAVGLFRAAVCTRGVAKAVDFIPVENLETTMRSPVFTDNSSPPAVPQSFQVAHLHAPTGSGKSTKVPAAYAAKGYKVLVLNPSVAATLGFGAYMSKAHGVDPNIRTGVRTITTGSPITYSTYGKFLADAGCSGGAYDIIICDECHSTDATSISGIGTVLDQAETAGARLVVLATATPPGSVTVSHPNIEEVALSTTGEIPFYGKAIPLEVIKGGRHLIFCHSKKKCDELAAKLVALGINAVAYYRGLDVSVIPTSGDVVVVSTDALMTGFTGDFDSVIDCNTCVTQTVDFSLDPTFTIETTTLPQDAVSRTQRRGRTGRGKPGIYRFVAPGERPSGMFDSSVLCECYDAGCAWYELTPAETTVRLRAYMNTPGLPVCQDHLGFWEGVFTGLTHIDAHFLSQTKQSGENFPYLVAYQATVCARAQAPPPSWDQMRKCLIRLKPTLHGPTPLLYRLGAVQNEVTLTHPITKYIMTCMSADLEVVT
T1 sequence (P27958 1658-1711): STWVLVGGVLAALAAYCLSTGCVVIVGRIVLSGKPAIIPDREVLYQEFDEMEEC
Put plainly: HCV protease assay (continuous FRET, full-length enzyme). The conditions noted are these: 3 nM full-length NS3-NS4A, 3 uM depsipeptide FRET substrate S1; competitive inhibition fit. In kind it is biochemical. The method, then: HCV protease activity and compound inhibition was monitored using a continuous, fluorescence resonance energy transfer (FRET) assay. Test compounds at various concentrations were added to assay buffer (50 mM MOPS pH 7.5, 50 mM NaCl, 20% glycerol, 0.025% Triton-X 100, 1 mM tris(2-carboxyethyl)phosphine) containing 3 uM depsipeptide FRET substrate S1 (Anaspec) (see Taliani et al. Analytical Biochemistry, 240, 60-67 (1996)) in a white, non-binding 96-well plate (Corning). The reaction was started by the addition of 3 nM full-length NS3-NS4A enzyme. The increase in fluorescence intensity following peptide cleavage was monitored using a Safire fluorescence plate reader (Tecan). The excitation and emission wavelengths were 340 nm and 500 nm, respectively. Inhibition constants (KI) were calculated by non-linear regression analysis using an equation derived for competitive inhibition.

Data set [2] concerns HCV dual reporter subgenomic replicon (B6b cell line). Briefly: HCV dual reporter subgenomic replicon assay, Renilla luciferase (antiviral activity). In kind it is cell-based. The settings on record: Hepatitis C virus, 72 h; 50% reduction of Renilla luciferase expression, 3 days incubation. The procedure:
The compounds described herein were tested for antiviral activity utilizing a dual-reporter replicon assay as described in U.S. patent application Ser. No. 10/818,075 (the '075 application), filed Apr. 5, 2004. The disclosure of the '075 application is incorporated herein.
(§1) Cell-based antiviral activity was evaluated in the previously described HCV dual reporter subgenomic replicon system (the '075 application). With this system, the effects of a compound on both HCV replication and cell viability can be simultaneously determined by measuring the intracellular levels of two separate reporter proteins. The dicistronic selectable replicon contains the Renilla luciferase gene such that Renilla luciferase activity within stably-transfected cells serves as a marker of HCV replication. The firefly luciferase gene is stably integrated into and expressed by the Huh-7 host cells. Since firefly luciferase activity is dependent upon cellular transcription and translation, firefly luciferase activity serves as an indicator of cell viability.
(§2) The dual reporter selectable replicon cell line (B6b) was maintained in DMEM supplemented with 10% FBS, L-glutamine, non-essential amino acids, penicillin, streptomycin, and selection agents (200 ug/ml G418 and 6 ug/ml blastocidin). On the first day of the experiment, cells were trypsinized, washed, and diluted in medium lacking the selection agents. Cells were transferred to 96-well, black-walled, clear bottom plates at a density of 2×10^4 cells in 150 ul of medium per well. Cells were allowed to settle for 60 to 90 minutes while compounds were being prepared. Each compound was initially diluted to a 4× working stock (2.56% DMSO in tissue culture medium) that was then serially diluted nine times in half log increments in medium with 2.56% DMSO. Fifty microliters of each dilution were then added in triplicate to the plated cells in order to obtain final IX compound concentrations with 0.64% DMSO. Typical testing concentrations ranged from 320 uM to 10 nM. Control wells containing 0.64% DMSO without compound were also included on each plate.
(§3) After 3 days of incubation under humidity at 37° C. with 5% CO2, plates were microscopically examined for compound precipitation and cell death. Tissue culture medium was then aspirated and cells were lysed with 20 ul of 1× Passive Lysis Buffer (Promega, Madison, Wis.). Reporter activity was measured using a MicroBeta Jet 1450 (Perkin Elmer, Boston, Mass.) following sequential 50 ul additions of firefly and Renilla luciferase substrates as described in the manufacturers protocol (Promega). Luciferase activities were expressed as a percentage of the signals observed in the compound-free control wells. The amount of compound required to reduce Renilla luciferase expression by 50% is defined as the 50% effective concentration, or EC50. The amount of compound that reduces firefly luciferase expression by 50% is defined as the 50% cytotoxic concentration, or CC50. A therapeutic index (TI) is calculated by dividing the CC50 by the EC50.

The next data set is described as follows: in vitro. In kind it is cell-based. The conditions noted are these: human; 50% reduction of firefly luciferase expression, 3 days incubation; read-out: Replicon CC50. The method, then: as §1, §2, §3

Compound `O=C(CC1CC1)N[C@H]1CCCCC/C=C\[C@@H]2C[C@@]2(C(=O)O)NC(=O)[C@@H]2C[C@@H](Oc3cc(-c4ccccn4)nc4ccsc34)CN2C1=O` [Example 16, (2R,6S,12Z,13aS,14aR,16aS)-6-[(Cyclopropylacetyl)amino]-5,16-dioxo-2-[(5-pyridin-2-ylthieno[3,2-b]pyridin-7-yl)oxy]-1,2,3,6,7,8,9,10,11,13a,14,15,16,16a-tetradecahydrocyclopropa[e]pyrrolo[1,2-a][1,4]diazacyclopentadecine-14a(5H)-carboxylic acid] yielded a Ki in data set [1] of 0.011 µM. The same compound had an EC50 in data set [2] of 0.14 µM. In addition, the 50% cytotoxic concentration (CC50) at 3 days in the data set “in vitro” was found to be 251 µM.
In data set [1], `Cc1cc(-c2nc(O[C@@H]3C[C@H]4C(=O)N[C@]5(C(=O)O)C[C@H]5/C=C\CCCCC[C@H](NC(=O)OC5CCCC5)C(=O)N4C3)c3sccc3n2)n(C)n1` [Example 58, (2R,6S,12Z,13aS,14aR,16aS)-6-{[(Cyclopentyloxy)carbonyl]amino}-2-{[2-(1,3-dimethyl-1H-pyrazol-5-yl)thieno[3,2-d]pyrimidin-4-yl]oxy}-5,16-dioxo-1,2,3,6,7,8,9,10,11,13a,14,15,16,16a-tetradecahydrocyclopropa[e]pyrrolo[1,2-a][1,4]diazacyclopentadecine-14a(5H)-carboxylic acid] yielded a Ki of 0.0023 µM. Moreover, the 50% effective concentration (EC50) in data set [2] came to 0.062 µM. In addition, in the data set “in vitro”, the CC50 at 3 days was determined as 216 µM.
`Cc1cc(-c2nc(O[C@@H]3C[C@H]4C(=O)N[C@]5(C(=O)O)C[C@H]5/C=C\CCCCC[C@H](NC(=O)OC5CCC5)C(=O)N4C3)c3sccc3n2)n(C)n1` [Example 60, (2R,6S,12Z,13aS,14aR,16aS)-6-{[(Cyclobutyloxy)carbonyl]amino}-2-{[2-(1,3-dimethyl-1H-pyrazol-5-yl)thieno[3,2-d]pyrimidin-4-yl]oxy}-5,16-dioxo-1,2,3,6,7,8,9,10,11,13a,14,15,16,16a-tetradecahydrocyclopropa[e]pyrrolo[1,2-a][1,4]diazacyclopentadecine-14a(5H)-carboxylic acid]: affinity in data set [1] was put at a Ki of 0.0067 µM. In data set [2], this compound registered a 50% effective concentration (EC50) of 0.7 µM. For the same compound, the cytotoxic concentration (CC50) at 3 days in “in vitro” amounted to 222 µM.
`Cc1cc(-c2nc(O[C@@H]3C[C@H]4C(=O)N[C@]5(C(=O)O)C[C@H]5/C=C\CCCCC[C@H](NC(=O)OC(C)(C)C)C(=O)N4C3)c3sccc3n2)n(C)n1` [Example 61, (2R,6S,12Z,13aS,14aR,16aS)-6-[(Tert-butoxycarbonyl)amino]-2-{[2-(1,3-dimethyl-1H-pyrazol-5-yl)thieno[3,2-d]pyrimidin-4-yl]oxy}-5,16-dioxo-1,2,3,6,7,8,9,10,11,13a,14,15,16,16a-tetradecahydrocyclopropa[e]pyrrolo[1,2-a][1,4]diazacyclopentadecine-14a(5H)-carboxylic acid] displayed a Ki in data set [1] of 0.0113 µM. Besides, a half-maximal effect in data set [2] (EC50) was put at 0.87 µM. The CC50 at 3 days in “in vitro” came to 244 µM.
As to `Cc1cc(-c2nc(O[C@@H]3C[C@H]4C(=O)N[C@]5(C(=O)O)C[C@H]5/C=C\CCCCC[C@H](NC(=O)O[C@H]5CCOC5)C(=O)N4C3)c3sccc3n2)n(C)n1` [Example 65, (2R,6S,12Z,13aS,14aR,16aS)-2-{[2-(1,3-Dimethyl-1H-pyrazol-5-yl)thieno[3,2-d]pyrimidin-4-yl]oxy}-5,16-dioxo-6-({[(3S)-tetrahydrofuran-3-yloxy]carbonyl}amino)-1,2,3,6,7,8,9,10,11,13a,14,15,16,16a-tetradecahydrocyclopropa[e]pyrrolo[1,2-a][1,4]diazacyclopentadecine-14a(5H)-carboxylic acid], the inhibition constant Ki in data set [1] is 0.0103 µM and 0.0079 µM. For the same compound, it took 2.6 µM to reach a half-maximal effect in data set [2] (EC50). In the data set “in vitro”, the CC50 at 3 days was > 320 µM.
In data set [1], `O=C(N[C@H]1CCCCC/C=C\[C@@H]2C[C@@]2(C(=O)O)NC(=O)[C@@H]2C[C@@H](Oc3cc(-c4ccccn4)nc4ccsc34)CN2C1=O)OC1CCCC1` [Example 11, (2R,12Z,13aS,14aR,16aS)-6-{[(cyclopentyloxy)carbonyl]amino}-5,16-dioxo-2-[(5-pyridin-2-ylthieno[3,2-b]pyridin-7-yl)oxy]-1,2,3,6,7,8,9,10,11,13a,14,15,16,16a-tetradecahydrocyclopropa[e]pyrrolo[1,2-a][1,4]diazacyclopentadecine-14a(5H)-carboxylic acid] gave a Ki of 0.0066 µM. Moreover, in data set [2], the response was half-maximal at 0.11 µM (EC50). For the same compound, the cytotoxic concentration (CC50) at 3 days in the data set “in vitro” was 86 µM.
In the same order, the values of `O=C(CC1CC1)N[C@H]1CCCCC/C=C\[C@@H]2C[C@@]2(C(=O)O)NC(=O)[C@@H]2C[C@@H](Oc3nc(-c4ccccn4)nc4ccsc34)CN2C1=O` [Example 46, (2R,6S,12Z,13aS,14aR,16aS)-6-[(Cyclopropylacetyl)amino]-5,16-dioxo-2-[(2-pyridin-2-ylthieno[3,2-d]pyrimidin-4-yl)oxy]-1,2,3,6,7,8,9,10,11,13a,14,15,16,16a-tetradecahydrocyclopropa[e]pyrrolo[1,2-a][1,4]diazacyclopentadecine-14a(5H)-carboxylic acid] are 0.015 µM, 0.092 µM and > 320 µM.
As for `CC(C)(C)OC(=O)N[C@H]1CCCCC/C=C\[C@@H]2C[C@@]2(C(=O)O)NC(=O)[C@@H]2C[C@@H](Oc3cc(-c4ccccn4)nc4ccsc34)CN2C1=O` [Example 14, (2R,6S,12Z,13aS,14aR,16aS)-6-[(Tert-butoxycarbonyl)amino]-5,16-dioxo-2-[(5-pyridin-2-ylthieno[3,2-b]pyridin-7-yl)oxy]-1,2,3,6,7,8,9,10,11,13a,14,15,16,16a-tetradecahydrocyclopropa[e]pyrrolo[1,2-a][1,4]diazacyclopentadecine-14a(5H)-carboxylic acid], the inhibition constant (Ki) in data set [1] turned out to be 0.0089 µM. In data set [2], this compound came in with an EC50 of 0.61 µM. Moreover, the CC50 at 3 days in “in vitro” was found to be 92 µM.
As to `CC(C)(C)OC(=O)N[C@H]1CCCCC/C=C\[C@@H]2C[C@@]2(C(=O)O)NC(=O)[C@@H]2C[C@@H](Oc3nc(-c4ccccn4)nc4ccsc34)CN2C1=O` [Example 44, (2R,6S,12Z,13aS,14aR,16aS)-6-[(Tert-butoxycarbonyl)amino]-5,16-dioxo-2-[(2-pyridin-2-ylthieno[3,2-d]pyrimidin-4-yl)oxy]-1,2,3,6,7,8,9,10,11,13a,14,15,16,16a-tetradecahydrocyclopropa[e]pyrrolo[1,2-a][1,4]diazacyclopentadecine-14a(5H)-carboxylic acid], the Ki in data set [1] was found to be 0.02 µM. In data set [2], this compound registered an EC50 of 0.15 µM. In addition, the 50% cytotoxic concentration (CC50) at 3 days in the data set “in vitro” amounted to 159 µM.
With `Cn1ccnc1-c1cc2nccc(O[C@@H]3C[C@H]4C(=O)N[C@]5(C(=O)O)C[C@H]5/C=C\CCCCC[C@H](NC(=O)CC5CC5)C(=O)N4C3)c2s1` [Example 91, (2R,6S,12Z,13aS,14aR,16aS)-6-[(Cyclopropylacetyl)amino]-2-{[2-(1-methyl-1H-imidazol-2-yl)thieno[3,2-b]pyridin-7-yl]oxy}-5,16-dioxo-1,2,3,6,7,8,9,10,11,13a,14,15,16,16a-tetradecahydrocyclopropa[e]pyrrolo[1,2-a][1,4]diazacyclopentadecine-14a(5H)-carboxylic acid], the Ki in data set [1] was 0.091 µM and 0.07 µM. Besides, in data set [2], the midpoint of the response, the EC50, lay at 0.29 µM. Moreover, the CC50 at 3 days in “in vitro” is > 320 µM.
